Assay results from patent publication US20180118722A1, “NOVEL ARYL-CYANOGUANIDINE COMPOUNDS” (Bayer Pharma Aktiengesellschaft, priority 2015, published 2018).

Key:
SMYD2 [1] = biological target: T1, SMYD2 (Homo sapiens, UniProt Q9NRG4); assay: In Cell Western (ICW) cell-based assay for detection of SMYD2 methylation activity (p53K370me1) in SMYD2 overexpressing KYSE-150 cells; design: expressed in transfected cells; host or cells: KYSE-150 (human esophageal carcinoma, DSMZ ACC 375); conditions: 72 h treatment, p53K370me1 signal, read-out: IC50 [mol/l] (ICW assay)
Excerpt: 1.2 Cell-Based Assay for Detection of SMYD2 Methylation Activity
For the detection of SMYD2 cellular methylation activity an In Cell Western (ICW) assay was established. This assay allows rapid processing of multiple samples for SMYD2 methylation derived immunofluorescence signals, with normalization to cell number via the use of the nucleic acid dye DRAQS. KYSE-150 cells (human esophageal carcinoma cell line; DSMZ-German Collection of Microorganisms and Cell Cultures; No: ACC 375) have been stably transfected with a construct expressing wild-type SMYD2 (NCBI Reference Sequence: NP_064582.2). […]
For conducting the ICW assay 5000 SMYD2 overexpressing KYSE-150 cells/well were seeded in 96-well plates (SIGMA) and cultivated for 24 h. […] After 5 washes with PBS, the fluorescence in each well was measured on an Odyssey (LI-COR) scanner at 800 nm (p53K370me1 signal; 764 nm excitation) and 700 nm (DRAQS signal; 683 nm excitation). Fluorescence intensity was quantified and normalized to background and DRAQS signals. IC50 values were calculated by fitting the normalized inhibition data to a 4-parameter logistic equation (Minimum, Maximum, IC50, Hill; Y=Max+(Min−Max)/(1+(X/IC50)Hill)) for each tested compound. For IC50 determination C0 (=no inhibition) was defined as the signal measured for DMSO treated controls. […]

SMYD2 [2] = biological target: T1, SMYD2; assay: Scintillation proximity assay (SPA) for detection of SMYD2 enzymatic inhibition; assay type: biochemical; design: The SMYD2 full length enzyme was produced in-house by expression (with an N-terminal 6×His tag) in E. coli; 6xHis (N); made in house; host or cells: E. coli; conditions: p53 Peptide substrate 1.0 μM, 3H-SAM 60 nM, 30 min at 22° C.; read-out: IC50 [mol/l] (SPA Assay)
Excerpt: 1.1 Scintillation Proximity Assay (SPA) for Detection of SMYD2 Enzymatic Inhibition
SMYD2 inhibitory activities of the compounds described in the present invention were quantified using a scintillation proximity assay (SPA) which measures methylation by the enzyme of the synthetic, biotinylated peptide Btn-Ahx-[…]−Amid×TFA (Biosyntan) derived from p53 and referred to from here on as “p53 Peptide”. The SMYD2 full length enzyme was produced in-house by expression (with an N-terminal 6×His tag) in E. coli and purification by affinity chromatography on a Ni-NTA Sepharose column followed by a size exclusion chromatography step on a Superdex 200 16/60 column (GE Healthcare).
In a typical assay 11 different concentrations of each compound (0.1 nM, 0.33 nM, 1.1 nM, 3.8 nM, 13 nM, 44 nM, 0.15 μM, 0.51 μM, 1.7 μM, 5.9 μM and 20 μM) were tested in duplicate within the same microtiter plate. To this end, 100-fold concentrated compound solutions (in DMSO) were previously prepared by serial dilution (1:3.4) of 2 mM stocks in a clear low volume 384-well source microtiter plate (Greiner Bio-One), from which 50 nl of compound solutions were transferred into a white low volume test microtiter plate from the same supplier. […] IC50 values were calculated by fitting the normalized inhibition data to a 4-parameter logistic equation using the “Screener” analysis software from Genedata.

T1 sequence (Q9NRG4 whole entry): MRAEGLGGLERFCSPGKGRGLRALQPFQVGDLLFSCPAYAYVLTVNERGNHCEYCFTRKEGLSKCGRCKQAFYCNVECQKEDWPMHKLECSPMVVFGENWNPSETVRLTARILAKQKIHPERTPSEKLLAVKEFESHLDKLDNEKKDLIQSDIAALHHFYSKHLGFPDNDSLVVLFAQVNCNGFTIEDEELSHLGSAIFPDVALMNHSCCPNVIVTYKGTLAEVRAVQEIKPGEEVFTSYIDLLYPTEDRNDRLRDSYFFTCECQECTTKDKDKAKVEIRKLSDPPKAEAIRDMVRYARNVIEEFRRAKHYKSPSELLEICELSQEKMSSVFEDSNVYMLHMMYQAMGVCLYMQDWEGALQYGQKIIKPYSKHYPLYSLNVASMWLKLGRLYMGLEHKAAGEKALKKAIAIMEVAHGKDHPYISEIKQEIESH

| IC50 (SMYD2 [1]) | IC50 (SMYD2 [2]) | SMILES |
| --- | --- | --- |
| 100 nM | 31.6 nM | N#C/N=C(/Nc1cccc(OC(F)F)c1)N1CC(N2CCCC(N)C2=O)C(c2ccc(Cl)c(Cl)c2)=N1 (stereo not shown) [Example 1, 4-(3-amino-2-oxopiperidin-1-yl)-N′-cyano-3-(3 ,4-dichlorophenyl)-N-[3-(difluoromethoxy)phenyl]-4,5-dihydro-1H-pyrazole-1-carboximidamide] |
| 171 nM | 302 nM | N#C/N=C(/Nc1cccc(OC(F)F)c1)N1CC(N2CCC(N)C2=O)C(c2ccc(Cl)c(Cl)c2)=N1 (stereo not shown) [Example 2, 4-(3-amino-2-oxopyrrolidin-1-yl)-N′-cyano-3-(3,4-dichlorophenyl)-N-[3-(difluoromethoxy)phenyl]-4,5-dihydro-1H-pyrazole-1-carboximidamide] |
